{"source": "patent US10351547B2", "about": "“Somatostatin modulators and uses thereof” (priority 2016, dated 2019)", "data": [{"target": "human SSTR2 (Homo sapiens (Human), UniProt P30874)", "sequence (P30874 whole entry)": "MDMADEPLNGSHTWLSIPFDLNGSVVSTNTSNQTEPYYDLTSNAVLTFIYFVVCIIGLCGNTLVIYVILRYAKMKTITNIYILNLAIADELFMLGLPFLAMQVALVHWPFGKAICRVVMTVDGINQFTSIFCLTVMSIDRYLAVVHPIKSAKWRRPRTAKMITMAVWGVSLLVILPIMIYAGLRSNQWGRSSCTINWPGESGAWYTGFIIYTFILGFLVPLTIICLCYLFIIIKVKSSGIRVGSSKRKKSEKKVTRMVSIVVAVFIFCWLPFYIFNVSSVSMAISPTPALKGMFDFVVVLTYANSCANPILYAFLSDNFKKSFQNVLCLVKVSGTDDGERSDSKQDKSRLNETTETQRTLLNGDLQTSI", "test": "Human SSTR2 intracellular cAMP functional assay for agonists (HTRF)", "type": "cell-based", "conditions": "not given", "procedure,_shortened": "(§1)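 Cells bearing human SSTR2 exposed to compound for 20 minutes at 37 °C; after lysis, cAMP measured by time-resolved fluorescence (HTRF) and converted via a standard curve. EC50 calculated from cAMP versus compound concentration.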", "units": {"EC50": "µM"}, "values": [{"smiles": "CCON=Cc1cc(F)cc(-c2cnc3ccc(-c4cccc(C#N)c4O)cc3c2N2CCC(N)CC2)c1", "note": "[2-79, 3-[4-(4-aminopiperidin-1-yl)-3-{3-[(ethoxyimino)methyl]-5-fluorophenyl}quinolin-6-yl]-2-hydroxybenzonitrile]", "EC50": "0.1 to 1"}, {"smiles": "CO/N=C/c1cccc(-c2ccc3ncc(-c4cc(F)cc(F)c4)c(N4CCC(N)CC4)c3c2)c1O", "note": "[2-81, 2-[4-(4-aminopiperidin-1-yl)-3-(3,5-difluorophenyl)quinolin-6-yl]-6-methoxyiminomethyl-phenol]", "EC50": "< 0.01"}, {"smiles": "CC[C@H](N)C1CN(c2c(-c3cc(C)cc(F)c3)cnc3ccc(-c4cc(F)cc(C#N)c4O)cc23)C1", "note": "[2-82, 3-(4-{3-[(1S)-1-aminopropyl]azetidin-1-yl}-3-(3-fluoro-5-methylphenyl)quinolin-6-yl)-5-fluoro-2-hydroxybenzonitrile]", "EC50": "0.01 to 0.1"}, {"smiles": "CS(=O)(=O)Nc1c(F)cc(F)cc1-c1ccc2ncc(-c3cc(F)cc(F)c3)c(N3CCC(N)CC3)c2c1", "note": "[2-86, N-{2-[4-(4-aminopiperidin-1-yl)-3-(3,5-difluorophenyl)quinolin-6-yl]-4,6-difluorophenyl}methanesulfonamide]", "EC50": "0.1 to 1"}, {"smiles": "COCCOCOc1c(C#N)cccc1-c1ccc2ncc(-c3cc(F)cc(F)c3)c(N3CCC(N)CC3)c2c1", "note": "[2-87, 3-[4-(4-aminopiperidin-1-yl)-3-(3,5-difluorophenyl)quinolin-6-yl]-2-[(2-methoxyethoxy)methoxy]benzonitrile]", "EC50": "0.01 to 0.1"}, {"smiles": "Cc1cc(F)cc(-c2cnc3ccc(-c4cccc(C(=O)N5CCC5)c4O)cc3c2N2CCC(N)CC2)c1", "note": "[2-88, 2-[4-(4-aminopiperidin-1-yl)-3-(3-fluoro-5-methylphenyl)quinolin-6-yl] 6-(azetidine-1-carbonyl)phenol]", "EC50": "0.01 to 0.1"}]}, {"target": "human SSTR2 (Homo sapiens (Human), UniProt P30874)", "test": "Human SSTR2 intracellular cAMP functional assay for agonists (HTRF)", "type": "cell-based", "conditions": "CHO-K1 cells stably expressing human SSTR2; NKH477-stimulated cAMP; read-out: EC50 (inhibition of cAMP activities via human SST2R)", "procedure,_shortened": "as §1", "units": {"EC50": "µM"}, "values": [{"smiles": "N#Cc1cccc(-c2ccc3ncc(-c4cc(F)cc(F)c4)c(N4CCC(N)CC4)c3c2)c1N", "note": "[2-77, 2-amino-3-[4-(4-aminopiperidin-1-yl)-3-(3,5-difluorophenyl)quinolin-6-yl]benzonitrile]", "EC50": "< 0.01"}, {"smiles": "COCOc1c(C#N)cccc1-c1ccc2ncc(-c3cc(F)cc(F)c3)c(N3CCC(N)CC3)c2c1", "note": "[2-78, 3-[4-(4-aminopiperidin-1-yl)-3-(3,5-difluorophenyl)quinolin-6-yl]-2-(methoxymethoxy)benzonitrile]", "EC50": "< 0.01"}, {"smiles": "O=c1[nH]c2cc(-c3ccc4ncc(-c5cc(F)cc(F)c5)c(N5CC[C@H]6NCCO[C@@H]6C5)c4c3)cc(F)c2[nH]1", "note": "[2-80, trans-6-[3-(3,5-difluorophenyl)-4-{octahydro-1H-pyrido[3,4-b]morpholin-6-yl}quinolin-6-yl]-4-fluoro-2,3-dihydro-1H-1,3-benzodiazol-2-one]", "EC50": "< 0.01"}, {"smiles": "COC(=O)Nc1c(F)cc(F)cc1-c1ccc2ncc(-c3cc(F)cc(F)c3)c(N3CCC(N)CC3)c2c1", "note": "[2-83, methyl N-{2-[4-(4-aminopiperidin-1-yl)-3-(3,5-difluorophenyl)quinolin-6-yl]-4,6-difluorophenyl}carbamate]", "EC50": "< 0.01"}, {"smiles": "COCOc1c(C#N)cccc1-c1ccc2ncc(-c3cc(F)cc(F)c3)c(N3CC[C@@H](N)[C@H](OC)C3)c2c1", "note": "[2-84]", "EC50": "< 0.01"}, {"smiles": "NC(=O)c1cccc(-c2ccc3ncc(-c4cc(F)cc(F)c4)c(N4CC[C@H]5NCCO[C@@H]5C4)c3c2)n1", "note": "[2-85, trans-6-[3-(3,5-difluorophenyl)-4-{octahydro-1H-pyrido[3,4-b]morpholin-6-yl}quinolin-6-yl]pyridine-2-carboxamide]", "EC50": "< 0.01"}, {"smiles": "N#Cc1cc(F)c(F)c(-c2ccc3ncc(-c4cc(F)cc(F)c4)c(N4CCC(N)CC4)c3c2)c1O", "note": "[2-99, 3-[4-(4-aminopiperidin-1-yl)-3-(3,5-difluorophenyl)quinolin-6-yl]-4,5-difluoro-2-hydroxybenzonitrile]", "EC50": "< 0.01"}, {"smiles": "CON=Cc1cccc(-c2ccc3ncc(-c4cc(C)cc(F)c4)c(N4CCC(N)CC4)c3c2)c1O", "note": "[2-115, 2-[4-(4-aminopiperidin-1-yl)-3-(3-fluoro-5-methylphenyl)quinolin-6-yl]-6-[(methoxyimino)methyl]phenol]", "EC50": "< 0.01"}]}]}
